From the NIST ThermoML archive (doi:10.1016/j.fluid.2005.09.019)
± gives the expanded uncertainty stated by the source.

What was measured:
[1] = wn = mass fraction of the nth substance listed; conditions: Fluid (supercritical or subcritical phases), Other PVT measurement
[2] = Crystal; visual observation

O=C(OCCC(F)(F)C(F)(F)C(F)(F)C(F)(F)C(F)(F)C(F)(F)F)c1cccc(-c2cccc(C(=O)OCCC(F)(F)C(F)(F)C(F)(F)C(F)(F)C(F)(F)C(F)(F)F)c2)c1 + O=C=O
[1]
Conditions | mass density [kg/m3]
294.55 K, 5980 kPa, w1 = 0.135 | 744 ± 22
295.05 K, 6070 kPa, w1 = 0.116 | 768 ± 23
295.15 K, 6170 kPa, w1 = 0.016 | 745 ± 22
295.55 K, 6240 kPa, w1 = 0.279 | 976 ± 29
295.95 K, 6280 kPa, w1 = 0.405 | 1054 ± 32
296.45 K, 6310 kPa, w1 = 0.334 | 950 ± 29
296.55 K, 6380 kPa, w1 = 0.206 | 904 ± 27
298.35 K, 6620 kPa, w1 = 0.206 | 900 ± 27
298.75 K, 6590 kPa, w1 = 0.116 | 782 ± 23
299.15 K, 6730 kPa, w1 = 0.405 | 1049 ± 31
299.75 K, 6610 kPa, w1 = 0.273 | 933 ± 28
299.75 K, 6900 kPa, w1 = 0.135 | 737 ± 22
299.95 K, 6860 kPa, w1 = 0.279 | 962 ± 29
300.55 K, 6930 kPa, w1 = 0.334 | 967 ± 29
301.15 K, 6900 kPa, w1 = 0.273 | 932 ± 28
301.95 K, 7070 kPa, w1 = 0.279 | 954 ± 29
302.75 K, 7520 kPa, w1 = 0.016 | 689 ± 21
303.15 K, 7240 kPa, w1 = 0.334 | 957 ± 29
303.35 K, 7310 kPa, w1 = 0.116 | 763 ± 23
303.35 K, 7340 kPa, w1 = 0.135 | 723 ± 22
303.35 K, 7550 kPa, w1 = 0.206 | 880 ± 26
303.45 K, 7240 kPa, w1 = 0.273 | 887 ± 27
304.75 K, 8270 kPa, w1 = 0.279 | 952 ± 29
305.35 K, 7520 kPa, w1 = 0.273 | 827 ± 25
305.85 K, 7660 kPa, w1 = 0.273 | 782 ± 24
305.95 K, 7620 kPa, w1 = 0.016 | 654 ± 20
312.75 K, 10240 kPa, w1 = 0.116 | 752 ± 23
318.45 K, 12270 kPa, w1 = 0.135 | 711 ± 22
320.65 K, 13200 kPa, w1 = 0.279 | 925 ± 28
321.05 K, 12890 kPa, w1 = 0.334 | 931 ± 28
321.05 K, 13270 kPa, w1 = 0.206 | 856 ± 26
322.65 K, 11510 kPa, w1 = 0.016 | 622 ± 19
327.85 K, 14660 kPa, w1 = 0.405 | 1001 ± 30
330.05 K, 15000 kPa, w1 = 0.405 | 999 ± 30
332.45 K, 15960 kPa, w1 = 0.135 | 688 ± 22
338.55 K, 17380 kPa, w1 = 0.116 | 719 ± 26
342.75 K, 18790 kPa, w1 = 0.206 | 816 ± 24
344.35 K, 18760 kPa, w1 = 0.334 | 898 ± 27
345.35 K, 18820 kPa, w1 = 0.405 | 969 ± 29
346.15 K, 19720 kPa, w1 = 0.279 | 879 ± 26
347.75 K, 16790 kPa, w1 = 0.016 | 585 ± 18
348.55 K, 19620 kPa, w1 = 0.135 | 665 ± 26
360.65 K, 22690 kPa, w1 = 0.405 | 949 ± 28
362.85 K, 23000 kPa, w1 = 0.206 | 777 ± 23
363.55 K, 22380 kPa, w1 = 0.116 | 673 ± 22
363.65 K, 23000 kPa, w1 = 0.334 | 862 ± 26
363.75 K, 19380 kPa, w1 = 0.016 | 554 ± 24
368.05 K, 24130 kPa, w1 = 0.279 | 835 ± 25
369.65 K, 24030 kPa, w1 = 0.135 | 639 ± 21

CCCCCCCCOC(=O)c1ccccc1-c1ccccc1C(=O)OCCCCCCCC [dioctyl [1,1'-biphenyl]-2,2'-dicarboxylate] + O=C=O
[1]
Conditions | mass density [kg/m3]
294.15 K, 29730 kPa, w1 = 0.55 | 926 ± 28
294.75 K, 7070 kPa, w1 = 0.019 | 786 ± 24
294.95 K, 61930 kPa, w1 = 0.374 | 942 ± 28
296.95 K, 55900 kPa, w1 = 0.374 | 931 ± 28
297.05 K, 11550 kPa, w1 = 0.628 | 870 ± 26
298.55 K, 27860 kPa, w1 = 0.55 | 917 ± 28
299.45 K, 9000 kPa, w1 = 0.019 | 784 ± 24
301.15 K, 12660 kPa, w1 = 0.628 | 862 ± 26
303.75 K, 60200 kPa, w1 = 0.274 | 984 ± 30
308.05 K, 69130 kPa, w1 = 0.094 | 953 ± 29
311.55 K, 50510 kPa, w1 = 0.274 | 965 ± 29
312.35 K, 42450 kPa, w1 = 0.374 | 882 ± 26
313.45 K, 26760 kPa, w1 = 0.55 | 896 ± 27
316.95 K, 53240 kPa, w1 = 0.094 | 911 ± 27
317.25 K, 14760 kPa, w1 = 0.019 | 750 ± 23
318.45 K, 16170 kPa, w1 = 0.628 | 848 ± 25
319.45 K, 53170 kPa, w1 = 0.171 | 1122 ± 34
320.25 K, 44070 kPa, w1 = 0.069 | 922 ± 28
322.45 K, 27040 kPa, w1 = 0.55 | 895 ± 27
322.55 K, 49720 kPa, w1 = 0.206 | 1098 ± 33
323.45 K, 44620 kPa, w1 = 0.274 | 934 ± 28
324.25 K, 48000 kPa, w1 = 0.094 | 883 ± 27
327.05 K, 41620 kPa, w1 = 0.069 | 899 ± 27
329.65 K, 48240 kPa, w1 = 0.171 | 1085 ± 33
330.85 K, 28520 kPa, w1 = 0.55 | 882 ± 26
331.25 K, 47070 kPa, w1 = 0.206 | 1071 ± 32
334.65 K, 19620 kPa, w1 = 0.628 | 838 ± 25
334.65 K, 39730 kPa, w1 = 0.374 | 852 ± 26
334.85 K, 19620 kPa, w1 = 0.019 | 716 ± 21
337.75 K, 42720 kPa, w1 = 0.274 | 903 ± 27
339.35 K, 44380 kPa, w1 = 0.094 | 845 ± 26
340.95 K, 45450 kPa, w1 = 0.206 | 1040 ± 31
340.95 K, 46170 kPa, w1 = 0.171 | 1048 ± 32
342.45 K, 40210 kPa, w1 = 0.374 | 857 ± 26
342.75 K, 39580 kPa, w1 = 0.069 | 852 ± 26
351.75 K, 44960 kPa, w1 = 0.206 | 1005 ± 30
352.95 K, 42930 kPa, w1 = 0.274 | 879 ± 27
353.55 K, 23520 kPa, w1 = 0.628 | 828 ± 25
353.85 K, 32040 kPa, w1 = 0.55 | 866 ± 26
353.95 K, 45690 kPa, w1 = 0.171 | 1013 ± 30
354.35 K, 43820 kPa, w1 = 0.094 | 811 ± 25
355.95 K, 41140 kPa, w1 = 0.374 | 830 ± 25
356.55 K, 40450 kPa, w1 = 0.069 | 821 ± 25
359.75 K, 25240 kPa, w1 = 0.019 | 671 ± 20
359.75 K, 45100 kPa, w1 = 0.206 | 994 ± 30
367.25 K, 43820 kPa, w1 = 0.274 | 849 ± 26
369.25 K, 46200 kPa, w1 = 0.171 | 970 ± 29
369.85 K, 45410 kPa, w1 = 0.206 | 955 ± 29
370.25 K, 44510 kPa, w1 = 0.094 | 779 ± 24
371.05 K, 26730 kPa, w1 = 0.628 | 821 ± 25
371.45 K, 42590 kPa, w1 = 0.374 | 816 ± 25
371.55 K, 41450 kPa, w1 = 0.069 | 788 ± 24
371.85 K, 34480 kPa, w1 = 0.55 | 851 ± 26
375.95 K, 27720 kPa, w1 = 0.019 | 638 ± 19

CCCCCCCCOC(=O)c1cccc(-c2cccc(C(=O)OCCCCCCCC)c2)c1 [dioctyl [1,1'-biphenyl]-3,3'-dicarboxylate]
Conditions | Normal melting temperature [°C]
[2] | 29.00 ± 1
